Assay results: patent US20250281424A1 (New York Blood Center, Inc, priority 2020, published 2025)

Target: T1, human PF4 (Homo sapiens, UniProt P02776)
T1 construct: PF4 is a 70 amino acid, lysine-rich 7.8 kDa platelet-specific protein; made in house; host or cells: Escherichia coli BL21DE3 pLysS (pT7-7) and/or Drosophila S2 cells
T1 sequence (P02776 32-101): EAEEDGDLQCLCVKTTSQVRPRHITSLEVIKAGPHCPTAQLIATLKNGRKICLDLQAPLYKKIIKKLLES
Experiment: Inhibition of PF4 tetramer formation (BS3 cross-linking, SDS-PAGE)
Format: biochemical
Details: for IC50: read-out: IC50 of PF4 tetramer formation inhibition; for inhibition at 5 µM: 5 μM inhibitor; for inhibition at 5 µM / inhibition at 10 µM / inhibition at 1 µM / inhibition at 3 µM: read-out: % inhibition of PF4 tetramer formation at single concentration of inhibitor; for inhibition at 10 µM: 10 μM inhibitor (column A); for inhibition at 1 µM: 1 μM inhibitor; for inhibition at 3 µM: 3 μM inhibitor (column A)
In short: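 Monomer, dimer, trimer and tetramer fractions were quantified by densitometry after reducing 12% SDS-PAGE of BS3-cross-linked (0.2 mM, 30 min, room temperature) PF4. Before cross-linking, 10 μg/ml E. coli-expressed human WT PF4 in PBS was exposed to compound for 15 min at 37° C or 60 min at room temperature; controls lacked compound.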

Row | Structure (SMILES) | IC50 [µM] | inhibition at 5 µM [%] | inhibition at 10 µM [%] | inhibition at 1 µM [%] | inhibition at 3 µM [%]
1 | C[C@@H]1CC[C@@H](C(=O)C2C(=O)c3ccc(-c4ccc5c(c4)C(=O)C(C(=O)[C@@H]4CC[C@@H](C)N4C(=O)OC(C)(C)C)C5=O)cc3C2=O)N1C(=O)OC(C)(C)C (stereo partly drawn) [Example 214, tert-butyl (2S,5R)-2-{2′-[(2S,5R)-1-[(tert-butoxy)carbonyl]-5-methylpyrrolidine-2-carbonyl]-1,1′,3,3′-tetraoxo-1H,1′H,2H,2′H,3H,3′H-[5,5′-biindene]-2-carbonyl}-5-methylpyrrolidine-1-carboxylate] | 4 | – | – | – | –
2 | CCCCc1ccc(NC(=O)C2C(=O)c3ccc(C(=O)c4ccc5c(c4)C(=O)C(C(=O)Nc4ccc(CCCC)cc4)C5=O)cc3C2=O)cc1 (stereo not drawn) [Example 101, N-(4-butylphenyl)-5-{2-[(4-butylphenyl)carbamoyl]-1,3-dioxo-2,3-dihydro-1H-indene-5-carbonyl}-1,3-dioxo-2,3-dihydro-1H-indene-2-carboxamide] | – | 80 | 71 | – | –
3 | N[C@H](C(=O)C1C(=O)c2ccc(C(=O)c3ccc4c(c3)C(=O)C(C(=O)[C@@H](N)C3CC3)C4=O)cc2C1=O)C1CC1 (stereo partly drawn) [Example 118, 2-[(2S)-2-amino-2-cyclopropylacetyl]-5-{2-[(2S)-2-amino-2-cyclopropylacetyl]-1,3-dioxo-2,3-dihydro-1H-indene-5-carbonyl}-2,3-dihydro-1H-indene-1,3-dione] | 3.4 | 75 | 94 | – | –
4 | O=C(NC1CCCC1)C1C(=O)c2ccc(S(=O)(=O)c3ccc4c(c3)C(=O)C(C(=O)NC3CCCC3)C4=O)cc2C1=O (stereo not drawn) [Example 294, N-cyclopentyl-5-{[2-(cyclopentylcarbamoyl)-1,3-dioxo-2,3-dihydro-1H-inden-5-yl]sulfonyl}-1,3-dioxo-2,3-dihydro-1H-indene-2-carboxamide] | 1.97 | – | – | 45 | 88
5 | CSCC[C@H](NC(=O)OC(C)(C)C)C(=O)C1C(=O)c2ccc(C(=O)c3ccc4c(c3)C(=O)C(C(=O)[C@H](CCSC)NC(=O)OC(C)(C)C)C4=O)cc2C1=O (stereo partly drawn) [Example 271, tert-butyl N-[(2S)-1-(5-{2-[(2S)-2-{[(tert-butoxy)carbonyl]amino}-4-(methylsulfanyl)butanoyl]-1,3-dioxo-2,3-dihydro-1H-indene-5-carbonyl}-1,3-dioxo-2,3-dihydro-1H-inden-2-yl)-4-(methylsulfanyl)-1-oxobutan-2-yl]carbamate] | – | – | – | 21 | 38
6 | O=C(c1ccc2c(c1)C(=O)C(C(=O)CC1CCCC1=O)C2=O)c1ccc2c(c1)C(=O)C(C(=O)CC1CCCC1=O)C2=O (stereo not drawn) [Example 261, 5-{1,3-dioxo-2-[2-(2-oxocyclopentyl)acetyl]-2,3-dihydro-1H-indene-5-carbonyl}-2-[2-(2-oxocyclopentyl)acetyl]-2,3-dihydro-1H-indene-1,3-dione] | 1.32 | – | – | 67 | 77
7 | COc1cccc(NC(=O)C2C(=O)c3ccc(C(=O)c4ccc5c(c4)C(=O)C(C(=O)Nc4cccc(OC)c4)C5=O)cc3C2=O)c1 (stereo not drawn) [Example 23, 5,5′-carbonylbis(1,3-dioxo-indan-2-carboxylic acid (3-methoxyphenyl)-amide)] | 1.75 | 84 | 92 | – | –
8 | Cc1ccc(NC(=O)C2C(=O)c3ccc(C(=O)c4ccc5c(c4)C(=O)C(C(=O)Nc4ccc(C)cc4)C5=O)cc3C2=O)cc1 (stereo not drawn) [Example 91, N-(4-methylphenyl)-5-{2-[(4-methylphenyl)carbamoyl]-1,3-dioxo-2,3-dihydro-1H-indene-5-carbonyl}-1,3-dioxo-2,3-dihydro-1H-indene-2-carboxamide] | – | 20 | 35 | – | –
9 | CC(=O)OC[C@H]1O[C@@H](OC(C)=O)[C@H](NC(=O)C2C(=O)c3ccc(Oc4ccc5c(c4)C(=O)C(C(=O)N[C@H]4[C@H](OC(C)=O)O[C@H](COC(C)=O)[C@@H](OC(C)=O)[C@@H]4OC(C)=O)C5=O)cc3C2=O)[C@@H](OC(C)=O)[C@@H]1OC(C)=O (stereo partly drawn) [Example 399, [(2R,3S,4R,5R,6S)-3,4,6-tris(acetyloxy)-5-{5-[(1,3-dioxo-2-{[(2S,3R,4R,5S,6R)-2,4,5-tris(acetyloxy)-6-[(acetyloxy)methyl]oxan-3-yl]carbamoyl}-2,3-dihydro-1H-inden-5-yl)oxy]-1,3-dioxo-2,3-dihydro-1H-indene-2-amido}oxan-2-yl]methyl acetate] | – | – | – | 21 | 28
10 | C[C@H](NC(=O)C1C(=O)c2ccc(S(=O)(=O)c3ccc4c(c3)C(=O)C(C(=O)N[C@@H](C)C(=O)O)C4=O)cc2C1=O)C(=O)O (stereo partly drawn) [Example 318, (2S)-2-({5-[(2-{[(1S)-1-carboxyethyl]carbamoyl}-1,3-dioxo-2,3-dihydro-1H-inden-5-yl)sulfonyl]-1,3-dioxo-2,3-dihydro-1H-inden-2-yl}formamido) propanoic acid] | – | – | – | 15 | 36
11 | CCNC(=O)C1C(=O)c2ccc(S(=O)(=O)c3ccc4c(c3)C(=O)C(C(=O)NCC)C4=O)cc2C1=O (stereo not drawn) [Example 336, N-ethyl-5-{[2-(ethylcarbamoyl)-1,3-dioxo-2,3-dihydro-1H-inden-5-yl]sulfonyl}-1,3-dioxo-2,3-dihydro-1H-indene-2-carboxamide] | – | – | – | 25 | 35
12 | O=C1c2ccc(S(=O)(=O)c3ccc4c(c3)C(=O)C(C(=O)[C@@H]3C[C@H]3C(=O)O)C4=O)cc2C(=O)C1C(=O)[C@@H]1C[C@H]1C(=O)O (stereo in doubt) [Example 223, (1R,2R)-2-[5-({2-[(1R,2R)-2-carboxycyclopropanecarbonyl]-1,3-dioxo-2,3-dihydro-1H-inden-5-yl}sulfonyl)-1,3-dioxo-2,3-dihydro-1H-indene-2-carbonyl]cyclopropane-1-carboxylic acid] | 1.4 | 97 | 100 | – | –
13 | CC(C)(C)OC(=O)N1CCOC(C(=O)C2C(=O)c3ccc(S(=O)(=O)c4ccc5c(c4)C(=O)C(C(=O)C4CN(C(=O)OC(C)(C)C)CCO4)C5=O)cc3C2=O)C1 (stereo not drawn) [Example 233] | – | – | – | 1 | 3
14 | CC(C)CCCC(=O)C1C(=O)c2ccc(C(c3ccc4c(c3)C(=O)C(C(=O)CCCC(C)C)C4=O)(C(F)(F)F)C(F)(F)F)cc2C1=O (stereo not drawn) [Example 194, 5-{1,1,1,3,3,3-hexafluoro-2-[2-(5-methylhexanoyl)-1,3-dioxo-2,3-dihydro-1H-inden-5-yl]propan-2-yl}-2-(5-methylhexanoyl)-2,3-dihydro-1H-indene-1,3-dione] | ~1.5 | – | – | – | –
15 | O=C1c2ccc(S(=O)(=O)c3ccc4c(c3)C(=O)C(C(=O)C3CCOC3)C4=O)cc2C(=O)C1C(=O)C1CCOC1 (stereo not drawn) [Example 147, 5-{[1,3-dioxo-2-(oxolane-3-carbonyl)-2,3-dihydro-1H-inden-5-yl]sulfonyl}-2-(oxolane-3-carbonyl)-2,3-dihydro-1H-indene-1,3-dione] | – | 55 | 59 | – | –
16 | O=C(c1ccnc(-c2ccccc2)c1)C1C(=O)c2ccc(S(=O)(=O)c3ccc4c(c3)C(=O)C(C(=O)c3ccnc(-c5ccccc5)c3)C4=O)cc2C1=O (stereo not drawn) [Example 241, 5-{[1,3-dioxo-2-(2-phenylpyridine-4-carbonyl)-2,3-dihydro-1H-inden-5-yl]sulfonyl}-2-(2-phenylpyridine-4-carbonyl)-2,3-dihydro-1H-indene-1,3-dione] | – | – | – | 14 | 29
17 | CCCC(=O)C1C(=O)c2ccc(C(=O)c3ccc4c(c3)C(=O)C(C(=O)CCC)C4=O)cc2C1=O (stereo not drawn) [Example 150, 2-butanoyl-5-(2-butanoyl-1,3-dioxo-2,3-dihydro-1H-indene-5-carbonyl)-2,3-dihydro-1H-indene-1,3-dione] | ~22 | 50 | 75 | – | –
18 | CC(C)(C)OC(=O)N1CC[C@H](C(=O)C2C(=O)c3ccc(C(=O)c4ccc5c(c4)C(=O)C(C(=O)[C@H]4CCN(C(=O)OC(C)(C)C)C4)C5=O)cc3C2=O)C1 (stereo partly drawn) [Example 373, tert-butyl (3S)-3-(5-{2-[(3S)-1-[(tert-butoxy)carbonyl]pyrrolidine-3-carbonyl]-1,3-dioxo-2,3-dihydro-1H-indene-5-carbonyl}-1,3-dioxo-2,3-dihydro-1H-indene-2-carbonyl)pyrrolidine-1-carboxylate] | – | – | – | 5 | 3
19 | O=C(c1ccc2c(c1)C(=O)C(C(=O)CSc1ccncc1)C2=O)c1ccc2c(c1)C(=O)C(C(=O)CSc1ccncc1)C2=O (stereo not drawn) [Example 289, 5-{1,3-dioxo-2-[2-(pyridin-4-ylsulfanyl)acetyl]-2,3-dihydro-1H-indene-5-carbonyl}-2-[2-(pyridin-4-ylsulfanyl)acetyl]-2,3-dihydro-1H-indene-1,3-dione] | – | – | – | 27 | 52
20 | C[C@H](NC(=O)OC(C)(C)C)C(=O)C1C(=O)c2ccc(C(=O)c3ccc4c(c3)C(=O)C(C(=O)[C@H](C)NC(=O)OC(C)(C)C)C4=O)cc2C1=O (stereo partly drawn) [Example 179, tert-butyl N-[(2S)-1-(5-{2-[(2S)-2-{[(tert-butoxy)carbonyl]amino}propanoyl]-1,3-dioxo-2,3-dihydro-1H-indene-5-carbonyl}-1,3-dioxo-2,3-dihydro-1H-inden-2-yl)-1-oxopropan-2-yl]carbamate] | ~6 | 81 | 92 | – | –
